Measured values reported in patent publication US11542311B2, “Fusion protein, preparation method therefor and application thereof in preparing ophthalmic disease treatment, anti-inflammation and anti-tumor medicament” (JIANGSU RONGTAI BIOTECH CO., LTD., priority 2017, dated 2023).

Columns and labels:
[1] = test system: xylene-induced ear swelling in mice; test: Xylene-induced ear swelling in mice; type: in vivo, Kunming mice; conditions: 200 mg/kg
Procedure: 80 Kunming mice were divided into 8 groups with 10 mice for each group and numbered. A physiological saline group was used as a blank control group, an aspirin group (200 mg/kg) was used as a positive control group, and fusion proteins I and II at high, medium and low doses (128, 32, 8 mg/kg) was used as the experimental groups. Mice were administered once by injection every 5 days. The blank control group was given an equal volume of physiological saline. On the fifth day after the administration, 0.05 mL of xylene was applied to both sides of the right ears of the mice to induce inflammation, and the left ears were not applied and were normal ears. After 2 h, the mice were sacrificed by dislocation, and the ears were cut along the auricle. Ear pieces were taken with a puncher and weighed, and the swelling degree and swelling rate were calculated. Swelling degree=right ear piece weight-left ear piece weight, swelling rate=(swelling degree/left ear piece weight)×100%.

[2] = test system: adjuvant arthritis in rat; test: Chronic inflammation of adjuvant arthritis in rat; type: in vivo, SD rats; conditions: 1 mg/kg once every 5 days for 15 days
Procedure: 80 SPF SD rats were randomly divided into 8 groups. Rats in each group were lightly anesthetized with ether. Then, 0.1 mL of complete Freund's adjuvant containing inactivated Mycobacterium tuberculosis was injected subcutaneously into the left hind foot of the rats. Primary arthritis occurred in the left hind foot of the rat, and at about 13 days post-modeling, secondary arthritis occurred in the right hind foot. A blank control group was injected with an equal volume of physiological saline. The drug was administered 13 days after modeling.
Using a foot volume measuring method, a marker was made with a fat-soluble marker at the left and right posterior ankle joints of each rat, and the left and right hind feet of the animal were respectively immersed in the volume measuring device. The immersion depth was bounded by the marker, and the reading value at the scale pipette of the device was the initial volume of the animal's left and right hind feet.
The day of modeling was considered as the 0th day and recorded as d0. The volume of the left hind foot (modeling foot) was measured from the first day dl after modeling every 2 days. When the swelling occurred (i.e., secondary arthritis occurred) at the contralateral non-inflammatory foot (right hind foot), the administration was started. The volume of the left and right hind feet was measured once every 2 days, and the degree of primary and secondary toe swelling was determined, which was calculated as follows: Primary toe swelling (mL)=left hind foot volume on the day of measurement−initial volume of left hind foot Secondary toe swelling (mL)=right hind foot volume on the day of measurement−initial volume of right hind foot
Systemic score: the systemic score was taken every 2 days after the onset of secondary inflammation.
Hind foot: no swelling=0 score, one hind foot swelling=1 score, two hind feet swelling=2 scores;
Forefoot: no swelling=0 score, one forefoot swelling=1 score, two forefeet swelling=2 scores;
Ears: no redness and nodules=0 score, redness or nodules in one ear=1 score, redness and nodules in both ears=2 scores;
Nose: no swelling=0 score, obvious swelling=1 score;
Tail: no nodules=0 score, nodules=1 score; full score was 8 scores.
Arthritis index score: the arthritis index score was performed every 2 days after the onset of secondary inflammation.
The initial body weight of each group of rats was weighed before modeling. The body weight was measured every 2 days from dl after modeling, from which the initial body weight was subtracted to obtain the weight gain of each group of rats.

[3] = test system: Human umbilical vein endothelial cells (HUVECs); test: Three-dimensional transwell assay, migration of HUVEC; type: cell-based; conditions: 8.0 · 10^−6 μg/mL, 24 h
Procedure: (1) 10 mg/mL Matrigel (a basement membrane matrix secreted by Engelbreth-Holm-Swarm (EHS) mouse sarcoma cells) diluted with a DMEM medium (Dulbecco's Modified Eagle Medium) at a ratio of 1:4, coated on a transwell chamber membrane, and air-dried at room temperature;
(2) HUVEC cells cultured to logarithmic phase were digested with 0.2% EDTA, collected, washed twice with PBS, followed by resuspended in an endothelial cell culture liquid containing 0.1% BSA, and counted under a microscope, and the cell concentration was adjusted to 1×10^5 cells/mL;
(3) Test solutions for each group were formulated and diluted to 100 μL with a cell culture liquid containing 0.1% BSA;
(4) The cells were inoculated into a transwell chamber, 100 μL per well, and test solutions for each group were added to the chamber. To a 24-well plate, 0.6 mL of endothelial cell culture liquid containing 5% fetal bovine serum and 1×ECGS was added to stimulate cell migration, and incubated at 5% CO2 at 37° C. for 24 h;
(5) The culture liquid in the well was discarded. […] The migration inhibition (MI) was calculated according to the formula: […]
The test was repeated 3 times independently. The results obtained from the test were calculated as mean±SD, and statistical t-test was performed. […]

[4] = test system: colon cancer cell HCT-116; test: MTT assay, proliferation of colon cancer cell HCT-116; type: cell-based; conditions: 5 μg/mL, 48 h
Procedure: (§1) The MTT assay was used to detect the inhibitory effect of the integrin blocker fusion protein obtained in Example 1 on the proliferation of various tumor cells, including melanoma cell B16F10, gastric cancer cell MGC-803, lung cancer cell A549, liver cancer cell Hep-G2, breast cancer cell MDA-MB-231, colon cancer cell HCT-116, human glioma U87, and cervical cancer cell Hela.
(§2) The tumor cells were cultured in a 5% CO2 incubator at 37° C. to a density of 90% or more, and collected by trypsinization. The cells were resuspended in the culture liquid and counted under a microscope. The cell concentration was adjusted to 3.0×10^4 cells/mL. The cell suspension was inoculated into a 96-well plate, 100 μL per well, and cultured overnight in a 5% CO2 incubator at 37° C. The fusion proteins I, II, and the positive drug Taxol were diluted with the culture liquid to respective predetermined concentrations. After the cells were fully adhered, each dilution was added to a 96-well plate, 100 μL per well, respectively. […] The absorbance was measured at 570 nm with a microplate reader with a reference wavelength of 630 nm, and the proliferation inhibition (PI) was calculated. […]
(§3) The test was repeated 5 times independently. The results obtained from the test were calculated as mean±SD, and statistical t-test was performed. […]

[5] = test system: breast cancer cell MDA-MB-231; test: MTT assay, proliferation of breast cancer cell MDA-MB-231; type: cell-based; conditions: 5 μg/mL, 48 h
Procedure: as §1, §2, §3

lung cancer cell A549 = test: MTT assay, proliferation of lung cancer cell A549; type: cell-based; conditions: 5 μg/mL, 48 h
Procedure: as §1, §2, §3

[6] = test system: cervical cancer cell Hela; test: MTT assay, proliferation of cervical cancer cell Hela; type: cell-based; conditions: 5 μg/mL, 48 h
Procedure: as §1, §2, §3

liver cancer cell Hep-G2 = test: MTT assay, proliferation of liver cancer cell Hep-G2; type: cell-based; conditions: 5 μg/mL, 48 h
Procedure: as §1, §2, §3

human glioma U87 = test: MTT assay, proliferation of human glioma U87; type: cell-based; conditions: 5 μg/mL, 48 h
Procedure: as §1, §2, §3

[7] = test system: gastric cancer cell MGC-803; test: MTT assay, proliferation of gastric cancer cell MGC-803; type: cell-based; conditions: 5 μg/mL, 48 h
Procedure: as §1, §2, §3

melanoma cell B16F10 = test: MTT assay, proliferation of melanoma cell B16F10; type: cell-based; conditions: 5 μg/mL, 48 h
Procedure: as §1, §2, §3

CC(=O)Oc1ccccc1C(=O)O [Aspirin, aspirin, reference compound]
PI (%) ([1]; ear swelling, mice): 53.15%
Swelling degree ([1]; mouse ear, 2 h after xylene): 3.12 ± 0.61 mg

CN(Cc1cnc2nc(N)nc(N)c2n1)c1ccc(C(=O)N[C@@H](CCC(=O)O)C(=O)O)cc1 [Methotrexate, methotrexate, reference compound]
Clinical score Arthritis index [2]: 2.96 ± 0.57
Clinical score Whole body [2]: 1.34 ± 0.19
Foot swelling degree (mL) Left [2]: 1.22 ± 0.21 mL
Foot swelling degree (mL) Right [2]: 1.25 ± 0.13 mL
Weight gain [2]: 47.35 ± 17.40 g

CCN(CC)CCNC(=O)c1c(C)[nH]c(/C=C2\C(=O)Nc3ccc(F)cc32)c1C [Sunitinib, reference compound]
MI (%) [3]: 82.31%
Migration cell number [3]: 441.0 ± 150.58

CC(=O)O[C@H]1C(=O)[C@@]2(C)[C@H]([C@H](OC(=O)c3ccccc3)[C@]3(O)C[C@H](OC(=O)[C@H](O)[C@@H](NC(=O)c4ccccc4)c4ccccc4)C(C)=C1C3(C)C)[C@]1(OC(C)=O)CO[C@@H]1C[C@@H]2O [Taxol, reference compound]
A570 nm/A630 nm [4]: 0.2098 ± 0.0164
PI (%) [4]: 69.16%
A570 nm/A630 nm [5]: 0.4071 ± 0.0301
PI (%) [5]: 52.83%
A570 nm/A630 nm (lung cancer cell A549): 0.3226 ± 0.0309
PI (%) (lung cancer cell A549): 52.17%
A570 nm/A630 nm [6]: 0.2078 ± 0.0162
PI (%) [6]: 83.75%
A570 nm/A630 nm (liver cancer cell Hep-G2): 0.4257 ± 0.0099
PI (%) (liver cancer cell Hep-G2): 58.55%
A570 nm/A630 nm (human glioma U87): 0.1825 ± 0.0163
PI (%) (human glioma U87): 76.38%
A570 nm/A630 nm [7]: 0.4146 ± 0.0186
PI (%) [7]: 56.60%
A570 nm/A630 nm (melanoma cell B16F10): 0.6011 ± 0.0144
PI (%) (melanoma cell B16F10): 52.13%
